Results on 15 compounds are retold here after patent publication US12692254B2, “Benzimidazole inhibitors of PAD enzymes” (BRISTOL-MYERS SQUIBB COMPANY, priority 2018, dated 2026).

SMILES strings stand for the structures.

The assay concerns the target human PAD4 (hPAD4) (Homo sapiens, UniProt Q9UM07). As to the kind of experiment: RFMS human PAD4 functional assay (rapid-fire mass spectrum). Type of assay: biochemical. The conditions noted are these: 5 nM hPAD4 enzyme, 250 μM BAEE, 50 μM Calcium; 30 min preincubation, 90 min reaction at 37° C. The procedure, abridged:
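PAD4 (10 nM) preincubated 30 min with compound (top final 50 μM), then BAEE substrate added in pH 7.5 HEPES buffer with DTT, 50 μM calcium, TPEN; 90 min at 37° C. After TCA quench, citrulline derivatized with phenyl glyoxal (4 mM final, 30 min, 37° C) and quantified by RapidFire MS against internal standard.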

Chain of human PAD4 (hPAD4) (Q9UM07 whole entry): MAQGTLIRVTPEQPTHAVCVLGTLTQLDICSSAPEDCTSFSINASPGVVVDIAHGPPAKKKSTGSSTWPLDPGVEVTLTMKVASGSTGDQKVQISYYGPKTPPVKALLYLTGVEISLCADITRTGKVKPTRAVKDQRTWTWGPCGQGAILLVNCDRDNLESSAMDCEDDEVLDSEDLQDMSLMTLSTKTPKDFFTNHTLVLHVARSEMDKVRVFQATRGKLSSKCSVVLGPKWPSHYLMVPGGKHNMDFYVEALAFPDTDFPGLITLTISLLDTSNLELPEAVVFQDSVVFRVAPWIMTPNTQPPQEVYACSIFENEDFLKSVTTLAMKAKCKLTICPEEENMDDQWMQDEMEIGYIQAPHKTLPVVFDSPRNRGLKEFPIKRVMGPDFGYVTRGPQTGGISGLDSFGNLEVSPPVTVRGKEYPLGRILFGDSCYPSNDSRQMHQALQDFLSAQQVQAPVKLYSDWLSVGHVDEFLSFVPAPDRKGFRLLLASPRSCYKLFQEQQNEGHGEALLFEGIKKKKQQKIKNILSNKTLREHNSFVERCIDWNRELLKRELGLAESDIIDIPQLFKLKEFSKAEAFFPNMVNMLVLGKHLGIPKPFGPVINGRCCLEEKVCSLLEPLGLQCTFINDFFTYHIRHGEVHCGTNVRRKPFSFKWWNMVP

The term IC50 denotes the concentration that gives 50% inhibition. On to `COc1cc(C(=O)N2C[C@H]3CC[C@@H]2[C@@H]3N)cc2nc(-c3cc4cccnc4n3CC3CC3)n(CC3CN(C(=O)C4CCC4)C3)c12` [Example 114, (1R,4R,7R)-2-{1-[(1-cyclobutanecarbonylazetidin-3-yl)methyl]-2-[1-(cyclopropylmethyl)-1H-pyrrolo[2,3-b]pyridin-2-yl]-7-methoxy-1H-1,3-benzodiazole-5-carbonyl}-2-azabicyclo[2.2.1]heptan-7-amine], for which the IC50 came to 54 nM. The value for `COc1cc(C(=O)N2C[C@H]3CC[C@@H]2[C@@H]3N)cc2nc(-c3cc4cc(Cl)ccc4n3C)n(CC3CN(c4ccnc(C)n4)C3)c12` [Example 61, (1R,4R,7R)-2-[2-(5-chloro-1-methyl-1H-indol-2-yl)-7-methoxy-1-{[1-(2-methylpyrimidin-4-yl)azetidin-3-yl]methyl}-1H-1,3-benzodiazole-5-carbonyl]-2-azabicyclo[2.2.1]heptan-7-amine] was 187 nM; that for `COc1cc(C(=O)N2CC3CCC2[C@@H]3N)cc2nc(-c3cc4ccccc4n3CC3CC3)n(Cc3cnn(CC#N)c3)c12` (stereo partly drawn) [Example 405, 2-[4-({5-[(7R)-7-amino-2-azabicyclo[2.2.1]heptane-2-carbonyl]-2-[1-(cyclopropylmethyl)-1H-indol-2-yl]-7-methoxy-1H-1,3-benzodiazol-1-yl}methyl)-1H-pyrazol-1-yl]acetonitrile] was 66 nM. The value for `COc1cc(C(=O)N2CC3CCC2[C@@H]3N)cc2nc(-c3cc4ccccc4n3CC3CC3)n(CC3CN(C(=O)c4cnccn4)C3)c12` (stereo partly drawn) [Example 436, (7R)-2-{2-[1-(cyclopropylmethyl)-1H-indol-2-yl]-7-methoxy-1-{[1-(pyrazine-2-carbonyl)azetidin-3-yl]methyl}-1H-1,3-benzodiazole-5-carbonyl}-2-azabicyclo[2.2.1]heptan-7-amine] was 34 nM. On to `COc1cc(C(=O)N2C[C@H](N)C[C@@H](F)C2)cc2nc(-c3cc4cccnc4n3CC3CC3)n(Cc3cn[nH]c3)c12` [Example 500, (3R,5R)-1-{2-[1-(cyclopropylmethyl)-1H-pyrrolo[2,3-b]pyridin-2-yl]-7-methoxy-1-[(1H-pyrazol-4-yl)methyl]-1H-1,3-benzodiazole-5-carbonyl}-5-fluoropiperidin-3-amine], for which the IC50 came to 127 nM. The value for `COc1cc(C(=O)N2CC3CCC2[C@@H]3N)cc2nc(-c3cc4ccccc4n3CC3CC3)n(CC3CN(C(=O)c4cccs4)C3)c12` (stereo partly drawn) [Example 457, (7R)-2-{2-[1-(cyclopropylmethyl)-1H-indol-2-yl]-7-methoxy-1-{[1-(thiophene-2-carbonyl)azetidin-3-yl]methyl}-1H-1,3-benzodiazole-5-carbonyl}-2-azabicyclo[2.2.1]heptan-7-amine] was 63 nM; that for `COc1cc(C(=O)N2C[C@H]3CC[C@@H]2[C@@H]3N)cc2nc(-c3cc4cccnc4n3CC3CC3)n(C3CN(c4cncnc4)C3)c12` [Example 76, (1R,4R,7R)-2-{2-[1-(cyclopropylmethyl)-1H-pyrrolo[2,3-b]pyridin-2-yl]-7-methoxy-1-[1-(pyrimidin-5-yl)azetidin-3-yl]-1H-1,3-benzodiazole-5-carbonyl}-2-azabicyclo[2.2.1]heptan-7-amine] was 292 nM.

Turning to `COc1cc(C(=O)N2CC3CCC2[C@@H]3N)cc2nc(-c3cc4cccnc4n3CC3CC3)n(Cc3cnn(-c4cncc(Cl)c4)c3)c12` (stereo partly drawn) [Example 383, (7R)-2-(1-{[1-(5-chloropyridin-3-yl)-1H-pyrazol-4-yl]methyl}-2-[1-(cyclopropylmethyl)-1H-pyrrolo[2,3-b]pyridin-2-yl]-7-methoxy-1H-1,3-benzodiazole-5-carbonyl)-2-azabicyclo[2.2.1]heptan-7-amine], the IC50 was 41 nM.

Take `COc1cc(C(=O)N2CC3CCC2[C@@H]3N)cc2nc(-c3csc4ccc(Cl)cc34)n(CC3CN(c4cncc(C(N)=O)c4)C3)c12` (stereo partly drawn) [Example 322, 5[3-({5-[(1R,4R,7R)-7-amino-2-azabicyc1o[2.2.1]heptane-2-carbonyl]-2-(5-ch1oro-1-benzothiophen-3-yl)-7-methoxy-1H-1,3-benzodiazol-1-yl}methyl)azetidin-1-yl]pyridine-3-carboxamide]: the IC50 was determined as 2050 nM. The result for `Cc1cc(C(=O)N2CC3CCC2[C@@H]3N)cc2nc(-c3cc4cccnc4n3CC3CC3)n(CC3CN(C(=O)c4ccccc4)C3)c12` (stereo partly drawn) [Example 458, (7R)-2-{1-[(1-benozylazetidin-3-yl)methyl]-2-[1-(cyclopropylmethyl)-1H-pyrrolo[2,3-b]pyridin-2-yl]-7-methyl-1H-1,3-benzodiazole-5-carbonyl}-2-azabicyclo[2.2.1]heptan-7-amine] reads 65 nM. The result for `COc1cc(C(=O)N2C[C@H]3CC[C@@H]2[C@@H]3N)cc2nc(-c3cc4ccc(Cl)cc4n3CC3CC3)n(CC3CN(c4ccnc(C)n4)C3)c12` [Example 9, (1R,4R,7R)-2-{2-[6-chloro-1-(cyclopropylmethyl)-1H-indol-2-yl]-7-methoxy-1-{[1-(2-methylpyrimidin-4-yl)azetidin-3-yl]methyl}-1H-1,3-benzodiazole-5-carbonyl}-2-azabicyclo[2.2.1]heptan-7-amine] reads 21 nM; that for `COc1cc(C(=O)N2CC3CCC2[C@@H]3N)cc2nc(-c3cc4cccnc4n3CC3CC3)n([C@H]3C[C@H](NC(=O)c4cc[nH]c(=O)c4)C3)c12` (stereo partly drawn) [Example 299, 2-oxo-N-[(1r,3r)-3-{5-[(1R,4R,7R)-7-amino-2-azabicyclo[2.2.1]heptane-2-carbonyl]-2-[1-(cyclopropylmethyl)-1H-pyrrolo[2,3-b]pyridin-2-yl]-7-methoxy-1H-1,3-benzodiazol-1-yl}cyclobutyl]-1,2-dihydropyridine-4-carboxamide], 603 nM.

For `COc1cc(C(=O)N2C[C@H]3CC[C@@H]2[C@@H]3N)cc2nc(-c3cc4ccccc4n3CC3CC3)n(CC3CN(C(=O)c4ccccc4F)C3)c12` [Example 164, (1R,4R,7R)-2-{2-[1-(cyclopropylmethyl)-1H-indol-2-yl]-1-{[1-(2-fluorobenzoyl)azetidin-3-yl]methyl}-7-methoxy-1H-1,3-benzodiazole-5-carbonyl}-2-azabicyclo[2.2.1]heptan-7-amine], the IC50 was found to be 26 nM.

Regarding `COc1cc(C(=O)N2CC3CCC2[C@@H]3N)cc2nc(-c3cc4cccnc4n3CC3CC3)n(CC3CCN(c4ncccn4)C3)c12` (stereo in doubt) [Example 231, (1R,4R,7R)-2-{2-[1-(cyclopropylmethyl)-1H-pyrrolo[2,3-b]pyridin-2-yl]-7-methoxy-1-{[(3S)-1-(pyrimidin-2-yl)pyrrolidin-3-yl]methyl}-1H-1,3-benzodiazole-5-carbonyl}-2-azabicyclo [2.2.1]heptan-7-amine], the IC50 amounted to 203 nM. The result for `COc1cc(C(=O)N2C[C@H]3CC[C@@H]2[C@@H]3N)cc2nc(-c3cc4ccccc4n3C)n(CC3CN(c4ccnc(C#N)n4)C3)c12` [Example 10, 4-[3-({5-[(1R,4R,7R)-7-amino-2-azabicyclo[2.2.1]heptane-2-carbonyl]-7-methoxy-2-(1-methyl-1H-indol-2-yl)-1H-1,3-benzodiazol-1-yl}methyl)azetidin-1-yl]pyrimidine-2-carbonitrile] reads 32 nM.
